Experimental data published in patent US20200368211A1, “INHIBITION OF GAMMA-GLUTAMYLTRANSFERASE AND GLUTATHIONE CATABOLISM TO ENHANCE THE EFFICACY OF NF-KB SIGNALLING PATHWAY INHIBITORS” (UNIVERSITAET HEIDELBERG, priority 2017, published 2020).
Where two headings read alike, the source gives them in different places.

What was measured:
Assay type in all cases: cell-based, human
[1] = test system: MEC1 cells; assay: Intracellular ROS/superoxide detection by flow cytometry, MEC1 cells; details: 10% FCS (OU749 100 μM) and 10% HS (OU749 200 μM); sorafenib 10 μM
Experimental: (§1) Intracellular ROS/superoxide levels were assessed by the ROS/superoxide Detection Assay Kit (ab139476, Abcam, Cambridge, UK) according to the manufacturer's protocol.
(§2) Cells were incubated with OU749 for 10 minutes prior to addition of serum or albumin (FCS or HS, both 10%, BSA or different HSA preparations as indicated), or albumin-supplemented FCS (supplementation with HSA or BSA: final albumin concentration 4-5 mg/ml). The final cell concentration was 1×10^5/ml/tube (volume 1 ml). Mean fluorescence intensities of at least 10000 events were assessed and compared.
(§3) ROS and superoxide levels were assessed by flow cytometry using the cellular ROS/superoxide Detection Assay Kit (ab139476, Abcam, Cambridge, UK) according to the manufacturer's protocol. […] Mean fluorescence intensities of at least 10000 events were assessed and compared.

[2] = test system: MEC1 cells; assay: MTT cell proliferation assay, MEC1 cells
Experimental: (§4) For metabolic activity assays, here MTT-assays, cell density was 3×10^4 cells per well (96 well plate). For ROS/superoxide detection assays cell density was 1×10^5 per tube (volume 1 ml). For NF-κB family member activation assays nuclear cell extracts were used (9×10^6 cells/6 ml volume in 6 well plates). The MTT or XTT assay is the most reliable for assessment of cell growth. In principal all assays are based on staining of viable cells after treatment. Cytotoxic effects in cell lines may also be assessed by [^3H] thymidine incorporation (see below). Cell proliferation was assessed by the MTT assay. […] The plates were incubated for 72 h under standard conditions. After addition of 15 μl of a 5 mg/ml MTT solution (MTT; Sigma, Germany) to each well and incubation for another 4 h, 100 μl/well of a 10% sodium dodecyl sulphate solution in 0.01 M hydrochloric acid were added and the plates were incubated overnight under the same conditions (stain development). Subsequently, the absorbance of each well at 540 nm (reference wavelength 690 nm) was recorded with an absorbance plate reader (Sunrise, Tecan, Switzerland). Blank control values (no drug, no cells) were subtracted from the sample values and the means of replicate wells for each drug dilution and the control (cells grown in absence of the drug) were used to calculate the extent of relative cell proliferation (as percentage of the control) and growth inhibition.

[3] = test system: MOLM13 cells; assay: MTT cell proliferation assay, MOLM13 cells
Experimental: as §4, with “For NF-κB family member activation assays nuclear cell extracts were used (9×10^6 cells/6 ml volume in 6 well plates).” left out

[4] = test system: MOLM13 cells; assay: Intracellular ROS/superoxide detection by flow cytometry, MOLM13 cells; details: 10% FCS (OU749 100 μM) and 10% HS (OU749 200 μM); sorafenib 10 nM
Experimental: as §1, §2, §3

[5] = 10% HS, DMSO control, 72 h treatment, read-out: IC50, proliferation of MEC1 cells in HS, DMSO control
[6] = 10% HS, plus 200 μM OU749, 72 h treatment, read-out: IC50, proliferation of MEC1 cells in HS after addition of OU749
[7] = 10% fetal calf serum, 72 h treatment, read-out: IC50, proliferation of MEC1 cells, FCS 10%
[8] = 10% human serum, 72 h treatment, read-out: IC50, proliferation of MEC1 cells, HS 10%
[9] = 10% HS, DMSO control, 72 h treatment, read-out: IC50, proliferation of MOLM13 cells in HS, DMSO control
[10] = 10% HS, plus 200 μM OU749, 72 h treatment, read-out: IC50, proliferation of MOLM13 cells in HS after addition of OU749
[11] = 10% fetal calf serum, 72 h treatment, read-out: IC50, proliferation of MOLM13 cells, FCS 10%
[12] = 10% human serum, 72 h treatment, read-out: IC50, proliferation of MOLM13 cells, HS 10%
[13] = Homo sapiens, MEC1, 10% HS, DMSO control, 72 h treatment, read-out: IC50, proliferation of MEC1 cells in HS, DMSO control
[14] = Homo sapiens, MEC1, 10% HS, plus 200 μM OU749, 72 h treatment, read-out: IC50, proliferation of MEC1 cells in HS after addition of OU749
[15] = Homo sapiens, MEC1, 10% fetal calf serum, 72 h treatment, read-out: IC50, proliferation of MEC1 cells, FCS 10%
[16] = MEC1, 10% human serum, 72 h treatment, read-out: IC50, proliferation of MEC1 cells, HS 10%
[17] = Homo sapiens, MOLM-13, 10% HS, DMSO control, 72 h treatment, read-out: IC50, proliferation of MOLM13 cells in HS, DMSO control
[18] = Homo sapiens, MOLM-13, 10% HS, plus 200 μM OU749, 72 h treatment, read-out: IC50, proliferation of MOLM13 cells in HS after addition of OU749
[19] = Homo sapiens, MOLM-13, 10% fetal calf serum, 72 h treatment, read-out: IC50, proliferation of MOLM13 cells, FCS 10%
[20] = MOLM-13, 10% human serum, 72 h treatment, read-out: IC50, proliferation of MOLM13 cells, HS 10%

Row | IC50 [3, 9] | IC50 [3, 10] | IC50 [3, 11] | IC50 [3, 12] | Compound | Intracellular ROS, NF-κB inhibitor in combination with γ-GT inhibitor, MEC1 [1] | IC50 [2, 5] | IC50 [2, 6] | IC50 [2, 7] | IC50 [2, 8] | Intracellular ROS, NF-κB inhibitor in combination with γ-GT inhibitor, MOLM13 [4] | IC50 [2, 13] | IC50 [2, 14] | IC50 [2, 15] | IC50 [2, 16] | IC50 [3, 17] | IC50 [3, 18] | IC50 [3, 19] | IC50 [3, 20]
1 | 12.6 ± 3.51 µM | 5.68 ± 0.08 µM | 2.04 ± 0.2 µM | 12.6 ± 3.51 µM | Cc1ccc(S(=O)(=O)/C=C/C#N)cc1 [Bay 11-7082] | increases the levels of intracellular ROS | 9.15 ± 1.73 µM | 4.64 ± 0.41 µM | 1.85 ± 0.04 µM | 9.15 ± 1.73 µM | increases the levels of intracellular ROS | – | – | – | – | – | – | – | –
2 | 8.53 ± 0.3 µM | 0.84 ± 0.68 µM | 0.3 ± 0.03 µM | 8.53 ± 0.3 µM | O=C1/C(=C/c2ccccc2F)CNC/C1=C\c1ccccc1F [EF24] | increases the levels of intracellular ROS | 13.8 ± 4.93 µM | 1.06 ± 0.25 µM | 1.66 ± 0.44 µM | 13.8 ± 4.93 µM | increases the levels of intracellular ROS | – | – | – | – | – | – | – | –
3 | – | – | – | – | Cc1oncc1C(=O)Nc1ccc(C(F)(F)F)cc1 [Leflunomide, leflunomide] | increases the levels of intracellular ROS | – | – | – | – | increases the levels of intracellular ROS | 586 ± 29.8 µM | 176 ± 22.1 µM | 72.5 ± 5.12 µM | 586 ± 29.8 µM | 175 ± 48.7 µM | 50.2 ± 2 µM | 14.8 ± 3.55 µM | 175 ± 48.7 µM
4 | – | – | – | – | CNC(=O)c1cc(Oc2ccc(NC(=O)Nc3ccc(Cl)c(C(F)(F)F)c3)cc2)ccn1 [Sorafenib, sorafenib] | increases the levels of intracellular ROS | – | – | – | – | increases the levels of intracellular ROS | 34.2 ± 2.9 µM | 12.7 ± 1.18 µM | 3.03 µM | 34.2 µM | 0.037 ± 1e-05 µM | 0.003 ± 0.0009 µM | 0.002 µM | 0.037 µM
